Like-named read-outs stand apart in the source and are kept apart here.
Experiments:
[1] = system: DU-145 human prostate cancer cells; experiment: Antiproliferative assay; format: cell-based; details: for GI50: Homo sapiens, DU-145, 96 h, read-out: GI50 DU-145
[2] = system: MDA MB-231 human breast cancer cells; experiment: Antiproliferative assay; format: cell-based; details: Homo sapiens, MDA-MB-231, 96 h, read-out: GI50 MDA MB-231
[3] = system: Renal SN12-C; experiment: NCI-60 cell line assay, Renal SN12-C; format: cell-based; details: Homo sapiens, SN12C, read-out: GI50 Renal SN12-C
[4] = system: Colon HCT-116; experiment: NCI-60 cell line assay, Colon HCT-116; format: cell-based; details: Homo sapiens, HCT-116, read-out: GI50 Colon HCT-116
[5] = system: Lung HOP-62; experiment: NCI-60 cell line assay, Lung HOP-62; format: cell-based; details: Homo sapiens, HOP-62, read-out: GI50 Lung HOP-62
[6] = system: Melanoma UACC-62; experiment: NCI-60 cell line assay, Melanoma UACC-62; format: cell-based; details: Homo sapiens, UACC-62, read-out: GI50 Melanoma UACC-62
[7] = system: NCI 60-cell line panel; experiment: NCI-60 cell line assay, mean over all 60 cell lines; format: cell-based; details: for MGM: mean concentration that caused 50% growth inhibition in all 60 cell lines
[8] = system: Ovarian OVCAR-3; experiment: NCI-60 cell line assay, Ovarian OVCAR-3; format: cell-based; details: Homo sapiens, OVCAR-3, read-out: GI50 Ovarian OVCAR-3
[9] = system: Bovine brain tubulin; details: 1.0 μM tubulin, 5.0 μM [3H]colchicine, mean ±SD; cited from earlier work
[10] = system: Lung HOP-62; details: read-out: GI50 Lung HOP-62; NCI-60 panel; cited from earlier work
[11] = system: Melanoma UACC-62; details: read-out: GI50 Melanoma UACC-62; NCI-60 panel; cited from earlier work
[12] = system: Ovarian OVCAR-3; details: read-out: GI50 Ovarian OVCAR-3; NCI-60 panel; cited from earlier work
[13] = system: CNS SF-539; details: read-out: GI50 CNS SF-539; NCI-60 panel; cited from earlier work
[14] = system: Renal SN12-C; details: read-out: GI50 Renal SN12-C; NCI-60 panel; cited from earlier work
[15] = system: Colon HCT-116; details: read-out: GI50 Colon HCT-116; NCI-60 panel; cited from earlier work
[16] = system: NCI 60-cell line panel; details: mean concentration that caused 50% growth inhibition in all 60 cell lines; cited from earlier work
[17] = system: various cancer lines in sealed polyvinylidine fluoride fibres implanted i.p. or s.c.; experiment: NCI hollow fibre assay; details: dosed i.p. at 150 mg/kg; mice; total score
[18] = system: Bovine brain tubulin; experiment: Inhibition of [3H]colchicine binding to tubulin; details: 1.0 μM tubulin, 5.0 μM [3H]colchicine, mean ±SD
[19] = system: Bovine brain tubulin; experiment: Inhibition of tubulin assembly; format: biochemical; details: read-out: Tubulin assembly IC50; 10 μM tubulin; mean ±SD of at least two determinations

| GI50 [1] [nM] | GI50 [2] [nM] | Structure (SMILES) | GI50 [3] [nM] | GI50 [4] [nM] | GI50 [5] [nM] | GI50 [6] [nM] | MGM [7] [µM] | GI50 [8] [nM] | also measured |
| --- | --- | --- | --- | --- | --- | --- | --- | --- | --- |
| > 100000 | > 100000 | COc1cc(CCN2CCc3cc(O)ccc3C2)cc(OC)c1OC [Compound 20j, 6-Hydroxy-2-(3,4,5-trimethoxyphenethyl)-1,2,3,4-tetrahydroisoquinoline] |  |  |  |  |  |  |  |
|  |  | CCc1cc(CN2CCc3cc(OS(N)(=O)=O)c(OC)cc3C2)cc(CC)c1CC [Compound 12i, 7-Methoxy-6-sulfamoyloxy-2-(3,4,5-triethylbenzyl)-1,2,3,4-tetra-hydroisoquinoline] | 5290 | 1050 | 2450 | 592 | 1.17 | 209 |  |
| > 100000 | > 100000 | COc1cc(CN2CCc3cc(OCc4ccccc4)ccc3C2)cc(OC)c1OC [Compound 20a, 6-Benzyloxy-2-(3,4,5-trimethoxybenzyl)-1,2,3,4-tetrahydroisoquinoline] |  |  |  |  |  |  |  |
| 31000 | 4890 | COc1ccc2c(c1)CCN(Cc1cc(OC)c(OC)c(OC)c1)C2 [Compound 20c, 6-Methoxy-2-(3,4,5-trimethoxybenzyl)-1,2,3,4-tetrahydroisoquinoline] |  |  |  |  |  |  | Fold less active than 20b ([1]; DU-145 and MDA MB-231): 20- to 200 fold |
| > 100000 | > 100000 | CCOc1c(OC)cc(CN2CCc3cc(O)ccc3C2)cc1OC [Compound 20g, 2-(3,5-Dimethoxy-4-ethoxybenzyl)-6-hydroxy-1,2,3,4-tetrahydroisoquinoline] |  |  |  |  |  |  |  |
|  |  | COc1ccc(/C=C\c2cc(OC)c(OC)c(OC)c2)cc1O [CA-4, combretastatin A-4] |  |  |  |  |  |  | Colchicine binding Inhibition at 5 μM inhibitor [9]: 98 ±0.7% |
| > 100000 | > 100000 | COc1cc(C(=O)N2CCc3cc(O)ccc3C2)cc(OC)c1OC [Compound 20i, 6-Hydroxy-2-(3,4,5-trimethoxybenzoyl)-1,2,3,4-tetrahydroisoquinoline] |  |  |  |  |  |  |  |
|  |  | COc1cc2c(cc1O)CCN(Cc1cc(Cl)c(OC)c(OC)c1)C2 [Compound 11e, 2-(3-Chloro-4,5-dimethoxybenzyl)-6-hydroxy-7-methoxy-1,2,3,4-tetrahydroisoquinoline] | 910 | 474 | 869 | 350 | 0.501 | 187 |  |
|  |  | COc1cc2c(cc1OS(N)(=O)=O)CC[C@@H]1[C@@H]2CC[C@]2(C)[C@@H](OS(N)(=O)=O)CC[C@@H]12 [Compound 1a, 2-methoxyestradiol-3,17-O,O-bis-sulfamate] |  |  |  |  |  |  | GI50 [10]: 51 nM; GI50 [11]: < 10 nM; GI50 [12]: < 10 nM; GI50 [13]: 36 nM; GI50 [14]: 126 nM; GI50 [15]: 45 nM; MGM [16]: 0.087 µM |
|  |  | COc1cc2c(cc1O)CCN(Cc1cc(Br)c(OC)c(OC)c1)C2 [Compound 11f, 2-(3-Bromo-4,5-dimethoxybenzyl)-6-hydroxy-7-methoxy-1,2,3,4-tetrahydroisoquinoline] | 768 | 143 | 353 | 305 | 0.38 | 74 | Hollow fibre assay score (maximum 96) [17]: 2 |
|  |  | COc1cc2c(cc1OS(N)(=O)=O)CCN(Cc1cc(Cl)c(OC)c(OC)c1)C2 [Compound 12e, 2-(3-Chloro-4,5-dimethoxybenzyl)-7-methoxy-6-sulfamoyloxy-1,2,3,4-tetrahydroisoquinoline] | 66 | 39 | 56 | 25 | 0.039 | 20 | Increase in antiproliferative activity relative to 4a ([1]; DU-145): 8- to 10 fold; Colchicine binding Inhibition at 5 μM inhibitor [18]: 32 ±3%; IC50 [19]: 5600 ± 700 nM; MGM values ([7]; NCI 60-cell line assay, stated in abstract): ~40 nM |
| 151 | 227 | COc1cc(CN2CCc3cc(O)ccc3C2)cc(OC)c1OC [Compound 20b, 6-Hydroxy-2-(3,4,5-trimethoxybenzyl)-1,2,3,4-tetrahydroisoquinoline] | 49 | 35 | 62 | 49 | 0.045 | 19 | Colchicine binding Inhibition at 5 μM inhibitor [18]: 73±3%; IC50 [19]: 1600 ± 100 nM |
